Test results as given in US11649220B2 (DEMOTECH.INC., priority 2018, dated 2023).

Experiments:
[1] = test system: Malondialdehyde (MDA) in serum; experiment: In vivo anti-lipid oxidation experiment (serum MDA, TBA method); design: inhibition rate %: concentration or dose not given beside the values; conditions: MAD lipid peroxidation in vivo; for inhibition rate %: relative to solvent DMSO and Chow averages; for avarage value of OD: serum, TBA method, 532 nm
Text: Experimental principle: Malondialdehyde (MDA) in liposome degradation products could condense with thiobarbituric acid (TBA) to form a red product which has a maximum absorption peak at 532 nm. The spectrophotometer was used to measure the relative absorption value to calculate the antioxidant value.
Reagents: Malondialdehyde (MDA) test kit (article number: A003-1, […], Nanjing Jiancheng), glacial acetic acid of analytically pure grade.
Reagent preparations: 1) Reagent I: Reagent 1 in the kit was taken out from the refrigerator and subjected to natural warming until a transparent liquid is obtained; 2) Reagent II: 170 mL of double-distilled water was added to each bottle and mixed; 3) Reagent III: A dry powder in the kit was dissolved in 60 mL of double-distilled water at 90 to 100° C. After the dry powder was dissolved totally, 30 mL of glacial acetic acid was added and kept in dark place; 4) Standard: 10 nmol/mL tetraethoxypropane.
Experimental procedures: 1) Blank tube: To 2 mL centrifuge tube were added anhydrous ethanol (70 μl), Reagent I (70 μl), Reagent II (0.8 mL) and Reagent III (0.8 mL) in sequence; 2) Standard tube: To 2 mL centrifuge tube were added standard (70 μl), Reagent I (70 μl), Reagent 11 (0.8 mL) and Reagent III (0.8 mL) in sequence; 3) Measuring tube: To 2 mL centrifuge tube were added the serum to be tested and physiological saline (the total volume of serum and physiological saline is 70 μl), Reagent I (70 μl), Reagent II (0.8 mL) and Reagent III (0.8 mL) in sequence; 4) Control tubes: all samples are set up with corresponding control tubes. To a 2 mL centrifuge tube were added the serum to be tested and physiological saline (the total volume of serum and physiological saline is 70 μl), Reagent I (70 μl), Reagent II (0.8 mL) and 50% glacial acetic acid (0.8 mL) in sequence.
After the above reagents were added, the mixture was mixed homogenously. Then the mixture was left in the water bath at 95° C. for 60 minutes. The sample was centrifuged at 4000 rpm for 10 minutes. The supernatant was taken for the measurement of the OD value.
Experimental data processing: the MDA content in serum was calculated as follows: MDA=(OD valuemeasured−OD valuecontrol)/OD valuestandard*concentration of the standard Inhibition rate %=100−(ODsample-average value−average value of Chow)/(average value of the solvent DMSO−average value of Chow)*100

[2] = In vitro free radical inhibition test (DPPH method); conditions: 8 μL of 20 mmol/L compound in 1 mL DPPH 0.059 mg/mL ethanol, 60 min dark, 517 nm; for inhibition rate %: DPPH; for Relative inhibition ability on free radicals: inhibition rate of AGI1067 on DPPH defined as 100
Text: 1. In Vitro Free Radical Inhibition Test (DPPH Method)
The single electron of DPPH radical has a strong absorption at […], and its alcohol solution is purple. In the presence of a free radical scavenger, the absorption of DPPH radical is weakened or disappeared for the reason that the free radical scavenger is paired with the single electron of DPPH radical, and the degree of discoloration is quantitatively related to the number of electrons DPPH radical receives. Therefore, a spectrophotometer can be used to quickly and quantitatively analyze the free radical scavenging rate of the compound.
1) 1 mL solution of DPPH in absolute ethanol (concentration: 0.059 mg/mL) was taken; 2) 8 μL of the compound to be tested (20 mmol/L) were added; 3) after mixing well, the resultant was kept in dark at room temperature for 60 minutes, 4) the absorbance of the sample at 517 nm was measured.

[3] = test system: golden hamsters (60% high-fat food, STZ induced); experiment: Golden hamster disease model, animal model induction group (16-week-old group): blood biochemical indexes and body weight; type: in vivo
Experimental: Animals and feed: 1) 8-week-old male golden hamsters with a body weight range of 100±5 g were selected; 2) 60% high-fat food; 3) 30% high-fat food; 4) general feed: NRC standard feed, containing 5% fat, total calories 4200 kcal/kg.
Animal model induction group (16-week-old group): 1) fed with 60% high-fat food for 2 weeks under standard environment; 2) STZ intraperitoneal injection twice every two days, 50 mg/kg each time; 3) After STZ induction, the golden hamsters were continuous fed for 1 week; 4) Blood was taken from the ocular venous plexus, and the initial body weight, blood glucose, total cholesterol, LDL-c, HDL-c and triglyceride were measured, and the golden hamsters were grouped in parallel according to animal biochemical indicators, 8 in each group; 5) Gavage of compounds: 0.1 mL of solution of compound (concentration: 6.8 mg/mL, DMSO solution) and 0.25 mL of whole milk were mixed evenly and administrated by gavage once a day for 2 weeks; 6) Blank control: 0.1 mL of DMSO and 0.25 mL of whole milk were mixed evenly and administrated by gavage once a day for 2 weeks; 7) Observation time: 14 days later, blood was taken from the ocular venous plexus, and the body weight, blood glucose, total cholesterol, LDL-c, HDL-c and triglyceride were measured.
Instruments: Shimadzu UV-1750 spectrophotometer, clinical determination kit (Changchun Huili Biotechnology Co., Ltd.)
Determination of blood glucose: glucose oxidase method, kit
Determination of total cholesterol (COD-PAP method), kit
Determination of low density lipoprotein cholesterol (direct method), kit
Determination of triglyceride (GP-PAP method)
Determination of high density lipoprotein (direct method), kit

[4] = after gavage once a day for 2 weeks
[5] = change rate, gavage once a day for 2 weeks

Compound | inhibition rate % [1] [%] | avarage value of OD [1] | inhibition rate % [2] [%] | Relative inhibition ability on free radicals [2] | also measured
COC(=O)CSC(C)(C)Sc1cc(C(C)(C)C)c(O)c(C(C)(C)C)c1 [Compound 1, methyl 2-((2-((3,5-di-tert-butyl-4-hydroxyphenyl)thio)propan-2-yl)thio)acetate] | 54.1 | 7.20 |  |  | 
CC(C)(SCC(=O)O)Sc1cc(C(C)(C)C)c(O)c(C(C)(C)C)c1 [Compound 2, 2-((2-((3,5-di-tert-butyl-4-hydroxyphenyl)thio)propan-2-yl)thio)acetic acid] | 73.5 | 6.45 | 27.1 | 62.1 | 
CCOC(=O)CCSC(C)(C)Sc1cc(C(C)(C)C)c(O)c(C(C)(C)C)c1 [Compound 3, ethyl 3-((2-((3,5-di-tert-butyl-4-hydroxyphenyl)thio)propan-2-yl)thio)propionate] | 34.9 | 7.94 | 43.7 | 100.2 | 
CC(C)(SCCC(=O)O)Sc1cc(C(C)(C)C)c(O)c(C(C)(C)C)c1 [Compound 4, 3-((2-((3,5-di-tert-butyl-4-hydroxyphenyl)thio)propan-2-yl)thio)propanoic acid] | 84.4 | 6.03 | 24.1 | 55.2 | 
CC(C)(C)c1cc(SSc2cc(C(C)(C)C)c(O)c(C(C)(C)CCO)c2)cc(C(C)(C)C)c1O [Compound 6, 2,6-di-tert-butyl-4-((3-(tert-butyl)-4-hydroxy-5-(4-hydroxy-2-methylbutan-2-yl)phenyl)disulfanediyl)phenol] | 71.2 | 6.54 | 53.2 | 95.2 | 
COc1cc(SC(C)(C)Sc2ccc(O)c(OC)c2)ccc1O [Compound 7, 4,4′-(propane-2,2-diylbis(thio))bis(2-methoxyphenol)] | 47.6 | 7.45 | 73.9 | 169.4 | 
CC(C)(Sc1cc(C(C)(C)C)c(O)c(C(C)(C)CCO)c1)Sc1cc(C(C)(C)C)c(O)c(C(C)(C)CCO)c1 [Compound 9, 4,4′-(propane-2,2-diylbis(thio))bis(2-(tert-butyl)-6-(4-hydroxy-2-methylbutan-2-yl)phenol)] | 62.9 | 6.86 | 55.1 | 126.3 | 
CC(C)(Sc1cc(C(C)(C)C)c(O)c(C(C)(C)C)c1)Sc1cc(C(C)(C)C)c2c(c1)C(C)(C)CCO2 [Compound 10, 2,6-di-tert-butyl-4-((2-((8-(tert-butyl)-4,4-dimethylchroman-6-yl)thio)propan-2-yl)thio)phenol] | 47.6 | 7.45 | 41.1 | 94.1 | 
CC(=O)OCCC(C)(C)c1cc(SC(C)(C)Sc2cc(C(C)(C)C)c(O)c(C(C)(C)C)c2)cc(C(C)(C)C)c1O [Compound 14, 3-(3-(tert-butyl)-5-((2-((3,5-di-tert-butyl-4-hydroxyphenyl)thio)propan-2-yl)thio)-2-hydroxyphenyl)-3-methylbutyl acetate] | 55.9 | 7.13 | 37.3 | 85.5 | 
CC(C)(Sc1cc(C(C)(C)C)c(O)c(C(C)(C)C)c1)Sc1cc(C(C)(C)C)c(O)c(C(C)(C)CCOC(=O)[C@H](c2ccccc2Cl)N2CCc3sccc3C2)c1 [Compound 15, (S)-3-(3-(tert-butyl)-5-((2-((3,5-di-tert-butyl-4-hydroxyphenyl)thio)propan-2-yl)thio)-2-hydroxyphenyl)-3-methylbutyl 2-(2-chlorophenyl)-2-(6,7-dihydrothieno[3,2-c]pyridin-5(4H)-yl)acetate] | 50.5 | 7.34 | 19.1 | 43.8 | 
CC(C)(Sc1cc(C(C)(C)C)c(O)c(C(C)(C)C)c1)Sc1cc(C(C)(C)C)c(O)c(C(C)(C)CCN)c1 [Compound 16, 2-(4-amino-2-methylbutan-2-yl)-6-(tert-butyl)-4-((2-((3,5-di-tert-butyl-4-hydroxyphenyl)thio)propan-2-yl)thio)phenol] | 25.0 | 8.32 | 91.8 | 210.4 | 
CCN(CC)CCOCCC(C)(C)c1cc(SC(C)(C)Sc2cc(C(C)(C)C)c(O)c(C(C)(C)C)c2)cc(C(C)(C)C)c1O [Compound 17, 2,6-di-tert-butyl-4-((2-((3-(tert-butyl)-5-(4-(2-(diethylamino)ethoxy)-2-methylbutan-2-yl)-4-hydroxyphenyl)thio)propan-2-yl)thio)phenol] | 74.0 | 6.43 | 27.8 | 63.7 | 
CC(C)(Sc1cc(C(C)(C)C)c(O)c(C(C)(C)C)c1)Sc1cc(C(C)(C)C)c(O)c(C(C)(C)C)c1 [Compound 30, probucol, reference compound] | 53.3 | 7.23 |  |  | change rate of blood glucose % ([3]; 0.1 mL of 6.8 mg/mL DMSO solution + 0.25 mL whole milk by gavage once a day for 2 weeks): −1.5%; change rate of body weight after deduction of DMSO blank % ([3]; DMSO blank deducted): −4.1%; average body weight after administration/g [3, 4]: 141.3 g; change of body weight/g [3, 4]: 7.6 g; change rate of body weight % [3, 4]: 5.7%; HDL % [3, 5]: 63.3%; LDL % [3, 5]: −12.2%; total cholesterol % [3, 5]: 8.7%; triglyceride % [3, 5]: −6.5%
